# Laboratory results published in patent publication US9034904B2, “Forms of dexlansoprazole and processes for the preparation thereof” (APOTEX PHARMACHEM INC., priority 2009, dated 2015).
# Assay: Chemical stability on storage (chemical purity by HPLC)
# Format: physicochemical
# Conditions: for reduction in chemical purity by HPLC (area %): following 1 week of storage at 40° C. and 75% relative humidity (40° C./75% RH)
"chemical stability compared to other known forms of dexlansoprazole such as the amorphous form (qualitative statement, storage conditions not given)",reduction in chemical purity by HPLC (area %),SMILES
increased chemical stability,,Cc1c(OCC(F)(F)F)ccnc1C[S@@+]([O-])c1nc2ccccc2[nH]1
,essentially unchanged,CC(O)CO.Cc1c(OCC(F)(F)F)ccnc1C[S@@+]([O-])c1nc2ccccc2[nH]1.O
,8.5 area %,"Cc1c(OCC(F)(F)F)ccnc1C[S@@+]([O-])c1nc2ccccc2[nH]1 [amorphous form, (R)-2-[[[3-methyl-4-(2,2,2-trifluoroethoxy)-2-pyridinyl]methyl]sulfinyl]-1H-benzimidazole, reference compound]"
